Source: patent publication US20240343699A1, “DERIVATIVES OF SUBSTITUTED MORPHOLINES AND USES THEREOF” (Supernus Pharmaceuticals, Inc., priority 2023, published 2024)
Where “and” joins values, the source holds several entries; their conditions need not be identical. Equal entries are not always repeated. Where two headings read alike, the source gives them in different places.

Key:
[1] = Metabolic stability in dog liver S9; assay type: in vitro ADME, Beagle dog; details: for half-life at 1 μM / microsomal CLint at 1 μM: pH 7.2
Protocol: Incubation Buffer (PBK): 50 mM potassium phosphate buffer was prepared from 1 M potassium phosphate buffer, pH 7.2. […] The dilution of […] was prepared by 90% methanol/10% DMSO, then 10 μM working solutions were prepared by diluting the 0.1 mM intermediates with 50 mM PBK. […] Prior to use, the stock solutions were brought to room temperature and thoroughly mixed. […] Cofactors Solutions: the mixture of cofactors solution was made at 10 mM of NADPH and 10 mM of UDPGA in PBK buffer.
The incubation was carried out in 96-well plates. The liver S9 working solutions were added to 96-well plates (80 μL/well) in duplicate. […] Reaction was initiated by adding cofactor mixture 10 μL/well. The plates were incubated at 37° C. in a water bath with shaking. […] The final organic solvent content in the incubation was ≤1%.
At specified time points, i.e., 5, 10, 20, 30 and 60 minutes, NCF60 (without adding NADPH (Nicotinamide-adenine dinucleotide phosphate, reduced form) and UDPGA (Uridine 5′-diphosphoglucuronic acid trisodium salt) replaced with PBK buffer reaction was stopped by adding three volumes of stop solution. The time zero (To) samples were prepared by adding three volumes of stop solution to liver S9 samples, followed by addition of test article or control, and cofactor mixture solution 10 μL/well.
Subsequently, 100 μL of supernatant.
Positive controls: 7-ethoxycoumarin and 7-hydroxycoumarin.

immobility = assay: Tail suspension test (TST)
hNav1.5 = biological target: T1, hNav1.5 (Homo sapiens, UniProt Q14524); assay: Nav1.5 human sodium ion channel cell based automated patch clamp assay (QPatch HT); details: Antagonist
T1 construct: CYL6004QP2DR
Protocol: Electrophysiological assays were conducted to profile five compounds for activities on the ion channel target using the QPatch HT electrophysiological platform.
CYL6004QP2DR Nav1.5 Human Sodium Ion Channel Cell Based Automated Patch Clamp Assay. Cells were held at −120 mV for 100 ms, stepped to −130 mV for 100 ms, and stepped back to −120 mV for 100 ms to measure the leak current. Na channels exist in a) resting or closed state at −120 mV, b) a transient open state that inactivates to c) inactivated state at −10 mV. Na current inhibition within 1-2 ms of channel opening at −10 mV is open channel inhibition (pulse 1). […] Pulse 1 and 2 are used to investigate drug binding to the open state and inactivated state of the Na channels, respectively. Each concentration of compound was applied for 5 minutes.
Current amplitudes more than 200 pA at the control stage were analyzed. The amplitude of the current was calculated by measuring the difference between the peak inward current on stepping to −10 mV (i.e. peak of the current) and remaining current at the end of the step. The current was assessed in vehicle control conditions and then at the end of each five (5) minute compound application.

[2] = Tissue binding in CD-1 mouse brain homogenate (equilibrium dialysis); details: for stability in mouse brain homogenate: dialysis conditions
[3] = Preclinical PK after intraperitoneal dosing of COMPOUND D, COMPOUND B and viloxazine; assay type: in vivo, mouse; details: COMPOUND D IP 10.978 mg/kg; for Cmax: read-out: Cmax, plasma COMPOUND D
Binding assays = details: 1.0E−05 M
Protocol: A study was conducted to test COMPOUND D and COMPOUND E in Binding and enzyme and uptake assays.
COMPOUND D and COMPOUND E were tested at 1.0E-05 M.
The results are expressed as a percent of control specific binding and as a percent inhibition of control specific binding
The IC50 values (concentration causing a half-maximal inhibition of control specific binding) and Hill coefficients (nH) were determined by non-linear regression analysis of the competition curves generated with mean replicate values using Hill equation curve fitting […]
where Y=specific binding, A=left asymptote of the curve, D=right asymptote of the curve, C=compound concentration, C50=IC50, and nH=slope factor. This analysis was performed using software developed at Cerep (Hill software) and validated by comparison with data generated by the commercial software SigmaPlot® 4.0 for Windows® (© 1997 by SPSS Inc.).
The inhibition constants (Ki) were calculated using the Cheng Prusoff equation where L=concentration of radioligand in the assay, and KD=affinity of the radioligand for the receptor. A scatchard plot is used to determine the KD.
In Vitro Pharmacology. Results showing an inhibition (or stimulation for assays run in basal conditions) higher than […] were considered to represent significant effects of the test compounds. Results showing an inhibition (or stimulation) between 25% and 50% are indicative of weak to moderate effects. Results showing an inhibition (or stimulation) lower than […] were not considered significant and mostly attributable to variability of the signal around the control level.

[4] = Beagle, dog liver S9, 1 μM, read-out: CLint(LS9)
[5] = dog liver S9, 1 μM, NCF60 (no cofactors, 60 min)
[6] = Pulse 1 (open state), read-out: Estimated IC50 (Pulse 1)
[7] = Pulse 2 (inactivated state), read-out: Estimated IC50 (Pulse 2)
[8] = mouse brain homogenate, 2 μM, 4 hr dialysis (COMPOUND A 1 hr)
[9] = 1 μM in Beagle Dog liver S9 fractions

T1 sequence (Q14524 whole entry): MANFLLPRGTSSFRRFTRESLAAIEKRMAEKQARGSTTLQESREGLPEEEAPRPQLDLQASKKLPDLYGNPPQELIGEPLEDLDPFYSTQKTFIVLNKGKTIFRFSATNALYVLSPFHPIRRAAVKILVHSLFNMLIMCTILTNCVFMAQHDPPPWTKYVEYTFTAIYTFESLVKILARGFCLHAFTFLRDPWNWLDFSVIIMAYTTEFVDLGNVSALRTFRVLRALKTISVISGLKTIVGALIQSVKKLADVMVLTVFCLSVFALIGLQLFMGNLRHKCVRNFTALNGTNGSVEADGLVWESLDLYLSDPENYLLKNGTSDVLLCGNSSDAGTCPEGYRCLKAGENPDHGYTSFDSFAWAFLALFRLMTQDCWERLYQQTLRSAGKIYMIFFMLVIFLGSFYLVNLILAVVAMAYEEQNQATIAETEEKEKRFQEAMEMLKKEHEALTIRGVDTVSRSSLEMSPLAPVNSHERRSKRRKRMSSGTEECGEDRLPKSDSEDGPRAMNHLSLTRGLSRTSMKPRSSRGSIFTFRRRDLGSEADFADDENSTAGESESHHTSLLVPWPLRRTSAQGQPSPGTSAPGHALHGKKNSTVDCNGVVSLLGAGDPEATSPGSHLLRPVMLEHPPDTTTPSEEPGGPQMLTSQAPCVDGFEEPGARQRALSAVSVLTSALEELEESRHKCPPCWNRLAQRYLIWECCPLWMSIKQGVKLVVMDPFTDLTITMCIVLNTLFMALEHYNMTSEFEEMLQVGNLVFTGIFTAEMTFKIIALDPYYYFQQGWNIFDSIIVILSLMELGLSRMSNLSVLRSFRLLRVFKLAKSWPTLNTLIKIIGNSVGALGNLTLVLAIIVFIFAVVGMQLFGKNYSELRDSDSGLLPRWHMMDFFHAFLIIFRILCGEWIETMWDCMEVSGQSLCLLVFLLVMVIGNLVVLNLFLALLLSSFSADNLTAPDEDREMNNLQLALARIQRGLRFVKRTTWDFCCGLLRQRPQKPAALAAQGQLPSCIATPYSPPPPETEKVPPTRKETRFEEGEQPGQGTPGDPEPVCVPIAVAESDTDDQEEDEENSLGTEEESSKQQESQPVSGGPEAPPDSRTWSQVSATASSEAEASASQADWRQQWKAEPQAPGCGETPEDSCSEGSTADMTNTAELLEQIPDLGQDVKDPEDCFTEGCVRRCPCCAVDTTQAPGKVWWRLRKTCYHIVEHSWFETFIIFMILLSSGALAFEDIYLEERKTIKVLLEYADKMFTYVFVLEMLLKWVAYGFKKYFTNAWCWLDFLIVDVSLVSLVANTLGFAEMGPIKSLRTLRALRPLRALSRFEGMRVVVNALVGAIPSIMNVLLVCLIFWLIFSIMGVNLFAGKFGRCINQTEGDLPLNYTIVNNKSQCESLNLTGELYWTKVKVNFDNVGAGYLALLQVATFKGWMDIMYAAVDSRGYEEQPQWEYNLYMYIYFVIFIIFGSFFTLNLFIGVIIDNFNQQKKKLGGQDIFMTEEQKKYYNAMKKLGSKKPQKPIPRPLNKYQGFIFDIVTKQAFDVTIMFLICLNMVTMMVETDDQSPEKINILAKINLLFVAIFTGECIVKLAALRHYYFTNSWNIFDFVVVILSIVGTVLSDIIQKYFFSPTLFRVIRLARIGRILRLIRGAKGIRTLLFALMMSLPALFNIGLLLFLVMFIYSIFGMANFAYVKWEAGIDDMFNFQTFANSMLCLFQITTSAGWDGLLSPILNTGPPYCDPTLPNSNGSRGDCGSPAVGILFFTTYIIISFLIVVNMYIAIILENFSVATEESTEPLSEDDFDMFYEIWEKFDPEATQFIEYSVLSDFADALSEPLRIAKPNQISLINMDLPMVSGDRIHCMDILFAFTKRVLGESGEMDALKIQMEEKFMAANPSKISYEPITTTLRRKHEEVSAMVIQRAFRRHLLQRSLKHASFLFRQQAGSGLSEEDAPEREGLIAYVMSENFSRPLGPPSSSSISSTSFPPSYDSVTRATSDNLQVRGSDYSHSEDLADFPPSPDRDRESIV

CCOc1ccccc1OC[C@@H]1CN(C(=O)OC(C)OC(=O)[C@@H](N)C(C)C)CCO1 (some centres unmarked) [COMPOUND A]
half-life at 1 μM ([1]; Beagle, dog liver S9, 1 μM): 11 min
microsomal CLint at 1 μM [1, 4]: 126 µL/min/mg
% Remaining ([1]; dog liver S9, 1 μM, 0 min): 100%
Analyte Peak area/IS Peak area Mean × 100 (n = 2) ([1]; dog liver S9, 1 μM, 0 min): 12.2
% Remaining ([1]; dog liver S9, 1 μM, 5 min): 8.0%
Analyte Peak area/IS Peak area Mean × 100 (n = 2) ([1]; dog liver S9, 1 μM, 5 min): 0.98
% Remaining ([1]; dog liver S9, 1 μM, 10 min): 8.8%
Analyte Peak area/IS Peak area Mean × 100 (n = 2) ([1]; dog liver S9, 1 μM, 10 min): 1.078
% Remaining ([1]; dog liver S9, 1 μM, 20 min): 5.2%
Analyte Peak area/IS Peak area Mean × 100 (n = 2) ([1]; dog liver S9, 1 μM, 20 min): 0.635
% Remaining ([1]; dog liver S9, 1 μM, 30 min): 3.1%
Analyte Peak area/IS Peak area Mean × 100 (n = 2) ([1]; dog liver S9, 1 μM, 30 min): 0.381
% Remaining ([1]; dog liver S9, 1 μM, 60 min): 0.8%
Analyte Peak area/IS Peak area Mean × 100 (n = 2) ([1]; dog liver S9, 1 μM, 60 min): 0.097
% Remaining [1, 5]: 2.0%
Analyte Peak area/IS Peak area Mean × 100 (n = 2) [1, 5]: 0.248
decrease of immobility compared to vehicle (immobility; COMPOUND A 32 mg/kg PO): 30%
percent immobility time (immobility; COMPOUND A 4, 8, 16, 32 mg/kg PO, ANOVA p=0.006): significant reduction in immobility
IC50 (hNav1.5; [6]): > 100 µM
IC50 (hNav1.5; [7]): 19.6 µM
stability in mouse brain homogenate ([2]; 2 μM): unstable
Analyte Peak area/IS Peak area CR (buffer side) [2, 8]: 0.0003 and 0.0002
Analyte Peak area/IS Peak area Co (time zero) ([2]; mouse brain homogenate, 2 μM): 0.010 and 0.012
% remaining after 1 hr ([2]; mouse brain homogenate, 1 hr (data not shown)): ^dCan't be determined due to instability of test article, which has 1.3% remaining after 1 hr (data not shown).

CCOc1ccccc1OC[C@@H]1CN(C(=O)OC(OC(=O)[C@H](N)C(C)C)C(C)C)CCO1 (some centres unmarked) [COMPOUND C]
half-life at 1 μM ([1]; Beagle, dog liver S9, 1 μM): 12 min
microsomal CLint at 1 μM [1, 4]: 115 µL/min/mg
% Remaining ([1]; dog liver S9, 1 μM, 0 min): 100%
Analyte Peak area/IS Peak area Mean × 100 (n = 2) ([1]; dog liver S9, 1 μM, 0 min): 8.27
% Remaining ([1]; dog liver S9, 1 μM, 5 min): 17%
Analyte Peak area/IS Peak area Mean × 100 (n = 2) ([1]; dog liver S9, 1 μM, 5 min): 1.44
% Remaining ([1]; dog liver S9, 1 μM, 10 min): 12%
Analyte Peak area/IS Peak area Mean × 100 (n = 2) ([1]; dog liver S9, 1 μM, 10 min): 0.962
% Remaining ([1]; dog liver S9, 1 μM, 20 min): 8.7%
Analyte Peak area/IS Peak area Mean × 100 (n = 2) ([1]; dog liver S9, 1 μM, 20 min): 0.720
% Remaining ([1]; dog liver S9, 1 μM, 30 min): 6.1%
Analyte Peak area/IS Peak area Mean × 100 (n = 2) ([1]; dog liver S9, 1 μM, 30 min): 0.501
% Remaining ([1]; dog liver S9, 1 μM, 60 min): 1.41% and 1.4%
Analyte Peak area/IS Peak area Mean × 100 (n = 2) ([1]; dog liver S9, 1 μM, 60 min): 0.116
% Remaining [1, 5]: 5.1%
Analyte Peak area/IS Peak area Mean × 100 (n = 2) [1, 5]: 0.418
percent immobility time (immobility; COMPOUND C 30 mg/kg PO, dose-response study, vs vehicle): tendency in decreasing immobility
percent immobility time (immobility; COMPOUND C 30 mg/kg PO, follow-up study, vs vehicle (p=0.43)): no significant reduction in immobility
percent immobility time (immobility; COMPOUND C 10, 30, 60, 90 mg/kg PO 30 min prior, ANOVA across all doses): no significant reduction in immobility
IC50 (hNav1.5; [6]): > 100 µM
IC50 (hNav1.5; [7]): 8.5 µM
stability in mouse brain homogenate ([2]; 2 μM): unstable
% Unbound Experimental ([2]; mouse brain homogenate, 2 μM, 4 hr): 20.9%
Analyte Peak area/IS Peak area CD (brain homogenate side) [2, 8]: 0.002 and 0.003
Analyte Peak area/IS Peak area CR (buffer side) [2, 8]: 0.001
Analyte Peak area/IS Peak area Co (time zero) ([2]; mouse brain homogenate, 2 μM): 0.036 and 0.037 and 0.041

CCOc1ccccc1OCC1CN(C(=O)OC(C)OC(=O)[C@H](N)C(C)C)CCO1 (some centres unmarked) [COMPOUND D]
% Remaining at 60 min [1, 9]: 3.10%
half-life at 1 μM [1, 9]: 12.6 min
microsomal CLint at 1 μM ([1]; 1 μM in Beagle Dog liver S9 fractions, read-out: CLint(mic.)): 110 µL/min/mg
IC50 (hNav1.5; [6]): > 100 µM
IC50 (hNav1.5; [7]): 14.1 µM
concentration at 0.25 h ([3]; CD-1, mouse, plasma, ip, 10.978 mg/kg, 0.250 h, individual mice, read-out: Plasma concentration of COMPOUND D): 3.44 ng/mL
concentration at 0.5 h ([3]; CD-1, mouse, plasma, ip, 10.978 mg/kg, 0.500 h, individual mice, read-out: Plasma concentration of COMPOUND D): 1.12 ng/mL
concentration at 1 h ([3]; CD-1, mouse, plasma, ip, 10.978 mg/kg, 1.00 h, individual mice): 5.74 ng/mL
concentration at 24 h ([3]; CD-1, mouse, plasma, ip, 10.978 mg/kg, 24.0 h, individual mice): 3.48 ng/mL
Cmax ([3]; CD-1, mouse, plasma, ip, 10.978 mg/kg, individual mice): 5.74 ng/mL
AUC(0-t) ([3]; CD-1, mouse, plasma, ip, 10.978 mg/kg, mean, read-out: AUC0-last, plasma COMPOUND D): 42.3 ng·h/mL
Cmax ([3]; CD-1, mouse, plasma, ip, 10.978 mg/kg, mean): 4.61 ng/mL
MRT last ([3]; CD-1, mouse, plasma, ip, 10.978 mg/kg, mean, read-out: MRT0-last, plasma COMPOUND D): 390 min
Tmax ([3]; CD-1, mouse, plasma, ip, 10.978 mg/kg, mean, read-out: Tmax, plasma COMPOUND D): 750 min
Plasma concentration of COMPOUND D ([3]; 0.250 h, individual mice, 10.978 mg/kg): BQL
Plasma concentration of COMPOUND D ([3]; 0.500 h, individual mice, 10.978 mg/kg): BQL
Plasma concentration of COMPOUND D ([3]; 1.00 h, individual mice, 10.978 mg/kg): BQL
Plasma concentration of COMPOUND D ([3]; 2.00 h, individual mice): BQL
Plasma concentration of COMPOUND D ([3]; 4.00 h, individual mice): BQL
Plasma concentration of COMPOUND D ([3]; 8.00 h, individual mice): BQL
Plasma concentration of Viloxazine ([3]; 8.00 h, individual mice, 10.978 mg/kg): BQL
Plasma concentration of Viloxazine ([3]; 24.0 h, individual mice): BQL
Plasma concentration of COMPOUND D ([3]; 24.0 h, individual mice, 10.978 mg/kg): BQL
AUC0-last, plasma COMPOUND D ([3]; individual mice, 10.978 mg/kg): 2.00 ng·h/mL and 82.6 ng·h/mL
Cmax, plasma COMPOUND D ([3]; individual mice, 10.978 mg/kg): 3.48 ng/mL
MRT0-last, plasma COMPOUND D ([3]; individual mice, 10.978 mg/kg): 51.6 min and 726 min
Tlast, plasma COMPOUND D ([3]; individual mice, 10.978 mg/kg): 1.00 h and 24.0 h
Tmax, plasma COMPOUND D ([3]; individual mice, 10.978 mg/kg): 60 min and 1440 min
Tlast, plasma COMPOUND D ([3]; mean): 12.5 h
inhibition, 5-HT2B(h) (antagonist effect) (Binding assays): 81.5%
inhibition, 5-HT2c(h) (antagonist effect) (Binding assays): 72.4%
inhibition, 5-HT4e(h) (antagonist radioligand) (Binding assays): 78.6%
inhibition, norepinephrine transporter(h) (antagonist radioligand) (Binding assays): 78.4%
